Several values for one entry are separate records, joined by “and”; a condition that tells them apart may be missing. Equal entries are not always repeated. Where two headings read alike, the source gives them in different places.
How the values were obtained:
[1] = Serum ALT values in HDV patients; format: in vivo, human
[2] = system: hepatitis delta virus (HDV); format: in vivo, human
[3] = 200 mg BID lonafarnib; Hanrahan et al. 2009, List et al. 2002; cited from earlier work
[4] = formulated in crystalline forms; cited from earlier work
hepatitis B virus (HBV) = assay: HBV DNA viral load and HBsAg in patients infected with HBV and HDV; settings: 200 mg BID lonafarnib 12 weeks; baseline about 4 log IU/ml; below LOQ of 2 log IU/mL
Excerpt: The term “HBV viral load” of a human serum or plasma sample refers to the number of copies of human HBV DNA in a given amount of human serum or plasma sample. HBV DNA may be detected and quantitated using real-time PCR. Commercial assays for quantitating HBV DNA are available. In the United States, Abbott offers the RealTime HBV assay, which is an in vitro PCR assay for the quantitation of HBV DNA in human serum or plasma. A CE certified kit for real-time PCR-based detection of HBV is commercially available from Analytik Jena, Germany (RoboGene® HBV DNA Quantification Kit 2.0).

[5] = Adverse events / tolerability in HDV patients; settings: N=3
[6] = cited from earlier work
[7] = Lonafarnib serum/plasma concentration in HDV patients (LC-MS/MS); format: in vivo, human; settings: N=3
Excerpt: As used herein, a serum lonafarnib level or concentration can be measured from a serum sample obtained from a subject periodically (such as weekly, biweekly, monthly or according to other schedules) and the levels during intervening periods can be extrapolated. […] In some embodiments the first measurement is made no earlier than one week after the initiation of oral therapy. Serum levels of lonafarnib can be measured using art-known methods, including radioimmunoassays, chromatographic assays, mass spectrometry and the like. In some embodiments of the invention, patient serum samples were extracted using a protein precipitation method (Acetonitrile).

[8] = Norvir package insert, cited from earlier work

Q: Which “ALT following ALT flare, patient A-001-5” value ([1]; 200 mg BID lonafarnib) does the source give for NC(=O)N1CCC(CC(=O)N2CCC([C@H]3c4ncc(Br)cc4CCc4cc(Cl)cc(Br)c43)CC2)CC1 [lonafarnib] here?
A: ALT normalization

Q: And the “ALT following ALT flare, patient A-001-1” value ([1]; 300 mg BID lonafarnib)?
A: ALT normalization

Q: What about the “Δ log Baseline to Day 28” value ([2]; 200 mg BID lonafarnib, individual patients 4-6) of the same molecule?
A: −1.85 log and −1.06 log and −1.98 log

Q: What about the “Δ log Baseline to Day 28” value ([2]; 300 mg BID lonafarnib, individual patients 1-3) of the same molecule?
A: −1.95 log and −1.97 log and −2.07 log

Q: What about the “tolerability in cancer patients” value [3] of the same molecule?
A: well tolerated

Q: And the bioavailability in animals [4]?
A: low and variable bioavailability

Q: What about the “HBV VL (HBV DNA level) after suppression, patient A-001-5” value (hepatitis B virus (HBV)) of the same molecule?
A: approximately 1.5 log IU/ml

Q: What about the “Anorexia, Grade 2” value ([5]; LNF 200 mg BID) of the same molecule?
A: ✓

Q: And the “Diarrhea, Grade 2” value ([5]; LNF 200 mg BID)?
A: ✓

Q: What about the “Fatique, Grade 2” value ([5]; LNF 200 mg BID) of the same molecule?
A: ✓

Q: What about the “Nausea, Grade 2” value ([5]; LNF 200 mg BID) of the same molecule?
A: ✓

Q: What about the “Wt Loss, Grade 2” value ([5]; LNF 200 mg BID) of the same molecule?
A: ✓

Q: And the “Anorexia, Grade 2” value ([5]; LNF 300 mg BID)?
A: ✓

Q: And the “Diarrhea, Grade 2” value ([5]; LNF 300 mg BID)?
A: ✓

Q: What about the “Fatique, Grade 2” value ([5]; LNF 300 mg BID) of the same molecule?
A: ✓

Q: And the “Nausea, Grade 2” value ([5]; LNF 300 mg BID)?
A: ✓

Q: What about the “Wt Loss, Grade 2” value ([5]; LNF 300 mg BID) of the same molecule?
A: ✓

Q: What about the stability in solution ([6]; by pH) of the same molecule?
A: stable at neutral pH but will hydrolyze in acidic or basic conditions

Q: And the water solubility [6]?
A: poorly water soluble

Q: And the hygroscopicity ([6]; crystalline solid)?
A: non-hygroscopic

Q: What about the thermal stability ([6]; solid state) of the same molecule?
A: thermally stable

Q: What about the “Mean Serum Concentrations (lonafarnib)” value ([7]; Day 7, LNF 200 mg BID) of the same molecule?
A: 2555 ng/mL

Q: What about the “Mean Serum Concentrations (lonafarnib)” value ([7]; Day 7, LNF 300 mg BID) of the same molecule?
A: 2994 ng/mL

Q: And the “Mean Serum Concentrations (lonafarnib)” value ([7]; Day 14, LNF 200 mg BID)?
A: 2959 ng/mL

Q: What about the “Mean Serum Concentrations (lonafarnib)” value ([7]; Day 14, LNF 300 mg BID) of the same molecule?
A: 1548 ng/mL

Q: And the “Mean Serum Concentrations (lonafarnib)” value ([7]; Day 28, LNF 200 mg BID)?
A: 2771 ng/mL

Q: What about the “Mean Serum Concentrations (lonafarnib)” value ([7]; Day 28, LNF 300 mg BID) of the same molecule?
A: 1984 ng/mL

Q: What about the “Mean Serum Concentrations (lonafarnib)” value ([7]; Day 56, LNF 200 mg BID) of the same molecule?
A: 1656 ng/mL

Q: And the “Mean Serum Concentrations (lonafarnib)” value ([7]; Day 56, LNF 300 mg BID)?
A: 2032 ng/mL

Q: And the “Mean Serum Concentrations (lonafarnib)” value ([7]; Day 84, LNF 200 mg BID)?
A: 443 ng/mL

Q: And the “Mean Serum Concentrations (lonafarnib)” value ([7]; Day 84, LNF 300 mg BID)?
A: 977 ng/mL

Q: For CC(C)c1nc(CN(C)C(=O)N[C@H](C(=O)N[C@@H](Cc2ccccc2)C[C@H](O)[C@H](Cc2ccccc2)NC(=O)OCc2cncs2)C(C)C)cs1 [ritonavir], which “increase in AUC of the co-administered primary drug” value (shortened to “increase in AUC”) ([8]; Fluticasone propionate, aqueous nasal spray) is on record?
A: 350 fold

Q: And the “increase in AUC” value ([8]; sidenafil)?
A: 11 fold

Q: And the “increase in AUC” value ([8]; trimethoprim)?
A: 1.2 fold

From patent US12290509B2, “Treatment of hepatitis delta virus infection” (priority 2014, dated 2025)
